Measured values as given in patent publication US12569498B2, “Methods and compositions for the prevention and treatment of ischemia reperfusion injury and infection” (CHILDREN'S NATIONAL MEDICAL CENTER, priority 2019, dated 2026).
Entries after “also recorded” stand apart in the source; their conditions may differ.

Key:
α7nAChR = α7nAChR (Homo sapiens, UniProt P36544); conditions: peak concentrations in smokers / levels with therapeutic dosing in humans (Campling 2013); cited from earlier work
[1] = tested on: IRI markers and pro-fibrotic genes in kidney after CFT073 uropathogenic Escherichia coli pyelonephritis; test: Quantitative PCR of kidney after acute pyelonephritis (IRI markers, pro-fibrotic genes); format: in vivo, C3H/HeOuJ mice
Protocol: Methods: Using an established murine model, pyelonephritis was induced by inoculating the bladder of C3H/HeOuJ mice with a uropathogenic E. coli. Five days following inoculation, half of the animals were treated with 5 days of ceftriaxone and half were treated with 5 days of ceftriaxone plus varenicline in the initial 48 hours. Histology and the expression of ischemia reperfusion injury markers and pro-fibrotic genes were evaluated at 14 and 30 days following the initial infection.
To initiate pyelonephritis, the bladder was catheterized with a 24-gauge angiocatheter and a total volume of 100 μL of a phosphate-buffered saline containing […] colony forming units (CFU) of CFT073 uropathogenic Escherichia coli (UPEC) was then instilled.
[…] Real-time PCR was performed using QuantStudio 7 Flex (Applied Biosystems, Foster City, CA) with Software Quantstudio Real-Time PCR Software (Thermo Fisher Scientific, Waltham, MA) and TaqMan Gene Expression Assays (Applied Biosystems, Foster City, CA). Standard TaqMan primers were used for Complement 1 q B chain (C1qb, Mm01179619_m1), Lipocalin 2 (Lcn2, Mm01324470_m1), Serpina (Mm04213318_m1), Cathepsin S (Ctss, Mm01255859_m1), Vascular cell adhesion molecule 1 (Vcam1, Mm01320970_m1), Interleukin 1 beta (IL-1β, Mm00434228_m1), and Nitric oxide synthase 2 (Nos2, Mm00440502_m1) as short-term IRI markers and Collagen 1 (Col1, Mm00801666_g1), Collagen 3 (Col3, Mm01254476_m1), Vimentin (Vim, Mm01333430_m1), and Smooth muscle actin (Acta, Mm00725412_s1) to evaluate long-term fibrosis.

[2] = Testis weight vs contralateral testis 30 days after torsion (testicular atrophy); format: in vivo, CD1 mice; conditions: drug given an hour after the onset of torsion; 30 days after reperfusion; vs untreated
Protocol: (§1) Unilateral testicular torsion was induced in mature male CD1 mice by rotating the right testicle 720 degrees for 2 hours. Treatment with cytisine or varenicline was initiated one hour prior or one hour after the creation of testicular torsion. Testes were harvested 18 hours and 30 days following reperfusion. The acute inflammatory response was quantified with FACS analysis, […], reduced glutathione levels and quantification of the expression of IRI markers. Long term (30 day) outcomes were assessed by histologic evaluation, quantification of the expression of pro-fibrotic genes and measurement of testicular weight.
(§2) Mice underwent testicular torsion as previously described (Lysiak 2001). Briefly, mice were anesthetized with isoflurane over a heating pad. The right testis was delivered through a low scrotal incision and rotated counterclockwise 720 degrees to induce ischemia for 2 hours. […] All animals were injected with long-acting buprenorphine (0.1 mg/kg) for long-term pain control prior to being recovered from anesthesia. Mice were euthanized either 18 hours or 30 days following torsion. Mice kept for 30 days after surgery were weighed on a weekly basis.
(§3) Cytisine (Sigma-Aldrich, St. Louis, MO) was administered intraperitoneally at a dose of 0.1 μg/gram either 1 hour before torsion or 1 hour after torsion (1 hour prior to detorsion). Varenicline ([…]) was administered as an intraperitoneal injection one hour after the onset of torsion and then continued every 12 hours for a total of 4 doses.
The degree of testicular atrophy was determined by comparing the weight of the torsed testis to the contralateral control testis 30 days after reperfusion.

[3] = tested on: pro-fibrotic genes Col1, Col3, Vim, SMA; test: RT-PCR of pro-fibrotic markers in testis 30 days after torsion; format: in vivo, CD1 mice; conditions: for relative expression of collagen 1 (Col1) / relative expression of collagen 3 (Col3) / relative expression of smooth muscle actin (Sma) / relative expression of vimentin (Vim): 30 days following torsion, vs untreated
Protocol: as §2, §3
RNA was isolated from testis tissue using RNEasy mini kit (Qiagen, Hilden, Germany) using the manufacturer's protocol. RNA concentration was measured with Nanodrop 8000 (Thermo Scientific, Waltham, MA). cDNA was synthesized using Superscript First-Strand Synthesis system for RT-PCR (Invitrogen, Carlsbad, CA) on a GeneAmp PCR System 9700 (Applied Biosystems, Foster City, CA) Real-Real-time PCR was performed using QuantStudio 7 Flex (Applied Biosystems, Foster City, CA). Software Quantstudio Real-Time PCR Software (Thermo Fisher Scientific, Waltham, MA). TaqMan Gene Expression Assays (Applied Biosystems, Foster City, CA). Standard TaqMan primers were used for Col1, Col3, Vim, SMA.

[4] = tested on: CD45+ immune cells in the torsed testis; test: Flow cytometry of CD45+ immune cell infiltrate in testis after testicular torsion; format: in vivo, CD1 mice; conditions: varenicline 1 grm/kg i.p. 1 hour after onset of torsion; 48 hours after reperfusion; P≤0.0001
Protocol: as §1
Mice underwent testicular torsion as previously described (Lysiak 2001). Briefly, mice were anesthetized with isoflurane over a heating pad. […]
Eighteen hours after reperfusion of the testis in the cytisine group and 48 hours after reperfusion in the varenicline group, bilateral testes were harvested, homogenized and digested with digestion solution containing 0.5% FBS, 20 mM HEPES, RPMI Medium, 0.057 U/ml DNase I, 1 mg/ml collagenase b. Cells were washed, counted with a hemocytometer and 1 million then diluted to 1 million cells per mL. […] For each sample 300,000 live cells were counted using BD FACSCalibur (BD Biosciences, San Jose, CA) and analyzed with FlowJo 9.0 software (TreeStar, Ashland, OR).

[5] = mice (Obach 2006); cited from earlier work
[6] = Warm ischemia of the hindlimb (flow cytometry, quantitative PCR, trichrome staining); format: in vivo; conditions: vs untreated controls

Sequence of α7nAChR (P36544 23-502): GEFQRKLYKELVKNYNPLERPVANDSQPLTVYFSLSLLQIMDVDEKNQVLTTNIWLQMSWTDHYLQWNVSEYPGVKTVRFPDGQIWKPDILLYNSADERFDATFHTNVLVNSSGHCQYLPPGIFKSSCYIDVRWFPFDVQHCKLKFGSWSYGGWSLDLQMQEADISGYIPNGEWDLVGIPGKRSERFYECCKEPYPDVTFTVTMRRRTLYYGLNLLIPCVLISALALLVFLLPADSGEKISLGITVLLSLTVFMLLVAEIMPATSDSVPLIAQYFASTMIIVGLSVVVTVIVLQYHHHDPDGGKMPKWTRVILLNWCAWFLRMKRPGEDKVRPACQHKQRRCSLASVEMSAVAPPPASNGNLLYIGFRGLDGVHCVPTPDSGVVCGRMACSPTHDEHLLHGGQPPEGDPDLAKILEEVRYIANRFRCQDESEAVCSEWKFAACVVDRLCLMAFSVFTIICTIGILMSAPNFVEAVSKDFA

Compound: c1cnc2cc3c(cc2n1)C1CNCC3C1 [varenicline, 7,8,9, 10-tetrahydro-6, 10-methano-6H-pyrazino[2,3-h][3]benzazepine]
- activation of α7nAChR at clinically reached concentrations (α7nAChR): α7nAChR agonist at concentrations found with therapeutic dosing in humans; also recorded: strong α4β2nAChR and α7nAChR agonist
- expression of established mediators (markers) of renal ischemia reperfusion injury ([1]; 14 days after inoculation, 5 days after completion of antibiotics, varenicline 1 mg/kg i.p. twice daily first 48 hours plus ceftriaxone vs ceftriaxone alone, difference not statistically significant): decreased expression of IRI markers
- expression of pro-fibrotic genes (Col1, Col3, acta, vimentin) in kidney ([1]; 30 days following inoculation, 21 days after completion of antibiotics, varenicline plus ceftriaxone vs ceftriaxone alone): trend towards a decreased expression of pro-fibrotic genes; also recorded: long-term decrease; also recorded: decrease in expression of genes responsible for renal fibrosis
- expression of vimentin in kidney ([1]; kidneys at 30 days, p-value of 0.03): Decrease in expression of vimentin
- testicular atrophy (weight of torsed testis vs contralateral control testis) [2]: limited long term testicular atrophy; also recorded: preserved testicular weight
- relative expression of collagen 1 (Col1) [3]: reduced the expression; also recorded: significantly decreased
- relative expression of collagen 3 (Col3) [3]: reduced the expression; also recorded: significantly decreased
- relative expression of smooth muscle actin (Sma) [3]: reduced the expression; also recorded: significantly decreased
- relative expression of vimentin (Vim) [3]: reduced the expression; also recorded: significantly decreased
- relative expression of collagen 1 (Col1) ([3]; listed as Varenicline): significantly decreased
- relative expression of collagen 3 (Col3) ([3]; listed as Varenicline): significantly decreased
- relative expression of smooth muscle actin (Sma) ([3]; listed as Varenicline): significantly decreased
- relative expression of vimentin (Vim) ([3]; listed as Varenicline): significantly decreased
- expression of pro-fibrotic genes / genetic markers of testicular fibrosis ([3]; long term (30 day) outcome, genes not itemised): decreased histologic and genetic markers of testicular fibrosis
- acute immune cell (leukocyte) infiltrate in testis [4]: decreased leukocyte infiltrate; also recorded: reduction in the acute immune cell infiltrate
- half-life [5]: 1.4 h
- infiltration of leukocytes (flow cytometry) ([6]; 24 hours after warm ischemia of the hindlimb, P≤0.01): decreased infiltration of leukocytes
- expression of pro-fibrotic genes (quantitative PCR) ([6]; 7 days after reperfusion of the limb): decreased expression of pro-fibrotic genes
- collagen deposition in muscle fibers (trichrome staining) ([6]; 14 days following limb ischemia, P≤0.005): significant decrease in collagen deposition
